Assay type in all cases: biochemical
In one experiment the target is T1, human PI3Kα protein (Homo sapiens, UniProt P42336).
T1 construct: purchased Carna Biosciences, Inc; host or cells: baculovirus expression system
As to the kind of experiment: PI3Kα enzyme assay (ADP-Glo). To be noted: read-out: PI3Kα enzyme inhibitory activity. In a few lines:
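Biotinylated human PI3Kα (baculovirus-expressed, 4.5 nmol/L) pre-incubated 15 min with compound in Tris-HCl pH 7.5, MgCl2, BSA; reaction 60 min at 25° C with 50 μmol/L PIP2 and 100 μmol/L ATP final. ADP quantified by ADP-Glo luminescence; IC50 calculated.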

In experiment [1] the target is T2, GST fusion human ERK2 protein (Homo sapiens, UniProt P28482).
T2 construct: purchased Carna Biosciences, Inc; host or cells: E. coli expression system
T2 sequence (P28482 whole entry, the tested form may be a part): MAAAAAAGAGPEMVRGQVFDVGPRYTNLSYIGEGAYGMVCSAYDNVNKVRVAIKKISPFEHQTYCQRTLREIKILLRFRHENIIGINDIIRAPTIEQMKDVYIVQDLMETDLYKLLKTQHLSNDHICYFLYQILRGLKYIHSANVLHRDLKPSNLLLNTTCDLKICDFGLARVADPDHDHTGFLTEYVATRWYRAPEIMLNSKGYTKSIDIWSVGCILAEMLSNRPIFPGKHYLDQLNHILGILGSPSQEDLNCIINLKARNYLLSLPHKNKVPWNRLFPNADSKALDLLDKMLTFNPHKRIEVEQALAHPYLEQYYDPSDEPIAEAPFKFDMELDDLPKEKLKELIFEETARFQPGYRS
As to the kind of experiment: ERK2 enzyme assay (1). To be noted: read-out: ERK2 enzyme inhibitory activity (1). In a few lines:
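IC50 derived from the proportion of phosphorylated 5-FAM peptide, separated from unphosphorylated peptide by microfluidic mobility shift. Compound was first preincubated 15 min at room temperature with 2.5 nmol/L kinase at pH 7.5, then 43.1 μmol/L ATP plus 4.25 μmol/L substrate reacted 120 min at 25 °C.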

The target in experiment [2] is T2, GST fusion human ERK2 protein. As to the kind of experiment: ERK2 enzyme assay (2). To be noted: read-out: ERK2 enzyme inhibitory activity (2). In a few lines: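 IC50 values come from mobility-shift measurement of phosphorylated versus unphosphorylated 5-FAM peptide substrate after EDTA quench. Beforehand, compound and 1.25 nmol/L E. coli-expressed GST–human ERK2 stood 15 min at room temperature (pH 7.5), then 1 mmol/L ATP and 4.25 μmol/L substrate (final) were added for 120 min at 25 °C.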

Setting [3] is: 4.5 nmol/L PI3Kα, PIP2 50 μmol/L, ATP 100 μmol/L.
Setting [4] is: 2.5 nmol/L ERK2, ATP 43.1 μmol/L.

Where a name gives a salt, the structure may show the parent alone. Read-outs that look alike come from different tables or passages of the source. A value given as a limit tells only on which side of the number the result lay.

T1 sequence (P42336 whole entry): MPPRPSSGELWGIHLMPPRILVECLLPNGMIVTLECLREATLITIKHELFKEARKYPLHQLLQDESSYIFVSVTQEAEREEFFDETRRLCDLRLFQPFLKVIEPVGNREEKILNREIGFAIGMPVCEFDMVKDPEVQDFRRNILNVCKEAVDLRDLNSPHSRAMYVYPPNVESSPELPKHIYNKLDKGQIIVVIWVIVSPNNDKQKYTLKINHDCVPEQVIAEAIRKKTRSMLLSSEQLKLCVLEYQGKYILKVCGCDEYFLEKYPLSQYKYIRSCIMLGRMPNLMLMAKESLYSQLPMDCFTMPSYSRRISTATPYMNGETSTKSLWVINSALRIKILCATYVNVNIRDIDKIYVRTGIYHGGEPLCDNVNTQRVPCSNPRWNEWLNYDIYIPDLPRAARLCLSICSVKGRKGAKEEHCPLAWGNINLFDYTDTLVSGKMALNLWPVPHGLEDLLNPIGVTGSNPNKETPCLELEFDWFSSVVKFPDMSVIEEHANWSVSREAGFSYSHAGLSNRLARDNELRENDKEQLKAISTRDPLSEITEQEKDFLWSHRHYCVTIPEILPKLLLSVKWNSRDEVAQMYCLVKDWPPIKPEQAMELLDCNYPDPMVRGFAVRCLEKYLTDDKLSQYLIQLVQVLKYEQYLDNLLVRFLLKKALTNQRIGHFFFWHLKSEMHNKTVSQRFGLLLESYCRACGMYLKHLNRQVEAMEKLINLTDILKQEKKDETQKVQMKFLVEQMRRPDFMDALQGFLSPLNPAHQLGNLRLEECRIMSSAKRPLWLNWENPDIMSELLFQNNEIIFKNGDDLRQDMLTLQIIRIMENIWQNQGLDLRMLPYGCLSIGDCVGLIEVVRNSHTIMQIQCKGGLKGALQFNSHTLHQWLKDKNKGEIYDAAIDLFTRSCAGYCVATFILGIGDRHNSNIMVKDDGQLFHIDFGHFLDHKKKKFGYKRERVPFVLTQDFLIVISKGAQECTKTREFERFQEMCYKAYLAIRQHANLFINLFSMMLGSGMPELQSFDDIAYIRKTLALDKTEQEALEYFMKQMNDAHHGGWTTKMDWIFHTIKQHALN
T1 sequence (P27986 whole entry partner): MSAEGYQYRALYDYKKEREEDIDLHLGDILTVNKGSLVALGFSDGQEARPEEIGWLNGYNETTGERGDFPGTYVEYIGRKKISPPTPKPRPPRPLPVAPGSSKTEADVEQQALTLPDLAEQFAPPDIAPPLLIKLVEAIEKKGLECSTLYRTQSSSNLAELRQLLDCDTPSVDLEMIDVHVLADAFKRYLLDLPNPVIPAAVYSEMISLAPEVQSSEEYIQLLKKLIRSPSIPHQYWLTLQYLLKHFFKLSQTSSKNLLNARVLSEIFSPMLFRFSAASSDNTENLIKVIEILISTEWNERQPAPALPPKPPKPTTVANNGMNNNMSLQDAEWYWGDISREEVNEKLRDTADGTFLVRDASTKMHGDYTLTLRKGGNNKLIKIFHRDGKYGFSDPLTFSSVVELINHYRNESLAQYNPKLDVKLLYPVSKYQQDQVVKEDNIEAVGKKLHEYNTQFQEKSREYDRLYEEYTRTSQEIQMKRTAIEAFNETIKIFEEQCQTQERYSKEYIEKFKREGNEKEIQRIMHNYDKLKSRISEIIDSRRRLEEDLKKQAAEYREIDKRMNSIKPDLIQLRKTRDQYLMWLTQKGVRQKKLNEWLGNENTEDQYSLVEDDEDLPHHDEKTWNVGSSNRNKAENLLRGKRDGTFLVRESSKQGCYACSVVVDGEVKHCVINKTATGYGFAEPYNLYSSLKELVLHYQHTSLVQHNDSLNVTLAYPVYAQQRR

Take `CC(C)c1nnc(Nc2ccc3ncc(-c4cn(C)nc4-c4ccccc4)cc3n2)s1` [Example 0124, 5-isopropyl-N-(7-(1-methyl-3-phenyl-1H-pyrazol-4-yl)-1,5-naphthyridin-2-yl)-1,3,4-thiadiazole-2-amine]: the IC50 on human PI3Kα protein (setting [3]) was under 1 µM; in experiment [1] (setting [4]), under 1 µM; in experiment [2] (1.25 nmol/L ERK2, ATP 1 mmol/L), 1 to 10 µM.
In the case of `Cn1cc(-c2cnc3ccc(Nc4nnc(C5CCCC5)s4)nc3c2)c(-c2ccccc2)n1` [Example 0129, 5-cyclopentyl-N-(7-(1-methyl-3-phenyl-1H-pyrazol-4-yl)-1,5-naphthyridin-2-yl)-1,3,4-thiadiazole-2-amine], the IC50 at human PI3Kα protein (setting [3]) is under 1 µM; in experiment [1] (setting [4]), under 1 µM; in experiment [2] (1.25 nmol/L ERK2, ATP 1 mmol/L), 1 to 10 µM.
Take `COc1nn(C)cc1-c1cnc2ccc(Nc3nnc(C(C)C)s3)nc2c1` [Example 0131]: the IC50 on human PI3Kα protein (setting [3]) is under 1 µM; in experiment [1] (setting [4]), under 1 µM; in experiment [2] (1.25 nmol/L ERK2, ATP 1 mmol/L), under 1 µM.
In the case of `Cn1cc(-c2cnc3ccc(Nc4nnc(C5CCCC5)s4)nc3c2)c(C2CC2)n1` [Example 0132], the IC50 on human PI3Kα protein (setting [3]) was under 1 µM; in experiment [1] (setting [4]), under 1 µM; in experiment [2] (1.25 nmol/L ERK2, ATP 1 mmol/L), under 1 µM.
Consider `CC(C)c1nnc(Nc2ccc3ncc(-c4cn(C)nc4C4CC4)cc3n2)s1` [Example 0133], for which the IC50 on human PI3Kα protein (setting [3]) is under 1 µM; in experiment [1] (setting [4]), under 1 µM; in experiment [2] (1.25 nmol/L ERK2, ATP 1 mmol/L), under 1 µM.
As for `CC(C)c1nnc(Nc2ccc3ncc(-c4cn(C)nc4-c4cccnc4)cc3n2)s1` [Example 0134], the IC50 on human PI3Kα protein (setting [3]) is under 1 µM; in experiment [1] (setting [4]), under 1 µM; in experiment [2] (1.25 nmol/L ERK2, ATP 1 mmol/L), under 1 µM.
`CC(C)c1nnc(Nc2ccc3ncc(-c4cn(C)nc4-c4ccncc4)cc3n2)s1` [Example 0135]: the IC50 at human PI3Kα protein (setting [3]) was under 1 µM; in experiment [1] (setting [4]), under 1 µM; in experiment [2] (1.25 nmol/L ERK2, ATP 1 mmol/L), 1 to 10 µM.
As to `CC(C)Cc1nn(C)cc1-c1cnc2ccc(Nc3nnc(C(C)C)s3)nc2c1` [Example 0138], the IC50 is under 1 µM on human PI3Kα protein (setting [3]); under 1 µM in experiment [1] (setting [4]); under 1 µM in experiment [2] (1.25 nmol/L ERK2, ATP 1 mmol/L).
For the compound `COCc1nn(C)cc1-c1cnc2ccc(Nc3nnc(C(C)C)s3)nc2c1` [Example 0142], the IC50 was under 1 µM at human PI3Kα protein (setting [3]); under 1 µM in experiment [1] (setting [4]); under 1 µM in experiment [2] (1.25 nmol/L ERK2, ATP 1 mmol/L).
Regarding `CCCc1nn(CCCN2CCCC2)cc1-c1cnc2ccc(Nc3nnc(C(C)C)s3)nc2c1` [Example 0147], the IC50 was under 1 µM at human PI3Kα protein (setting [3]); under 1 µM in experiment [1] (setting [4]); under 1 µM in experiment [2] (1.25 nmol/L ERK2, ATP 1 mmol/L).
As for `CCOc1nn(C)cc1-c1cnc2ccc(Nc3nnc(C(C)C)s3)nc2c1` [Example 0150], the IC50 at human PI3Kα protein (setting [3]) is under 1 µM; in experiment [1] (setting [4]), under 1 µM; in experiment [2] (1.25 nmol/L ERK2, ATP 1 mmol/L) it was 1 to 10 µM.
`Cc1ccc(Nc2ccc3ncc(-c4cnn(C)c4)cc3n2)nn1` [Example 0151]: the IC50 on human PI3Kα protein (setting [3]) is 10 to 50 µM; in experiment [1] (setting [4]), under 1 µM; in experiment [2] (1.25 nmol/L ERK2, ATP 1 mmol/L), 1 to 10 µM.
For `COc1cncc(Nc2cnc3ccc(Nc4cc(C)cnn4)nc3c2)c1` [Example 0157, N^7-(5-methoxypyridin-3-yl)-N^2-(5-methylpyridazin-3-yl)-1,5-naphthyridine-2,7-diamine], in that order: under 1 µM, under 1 µM and under 1 µM.
For `Cc1cnnc(Nc2ccc3ncc(Nc4cncc(OCCN5CCOCC5)c4)cc3n2)c1` [Example 0158, N^2-(5-methylpyridazin-3-yl)-N^7-(5-(2-morpholinoethoxyl)pyridin-3-yl)-1,5-naphthyridine-2,7-diamine], in that order: under 1 µM, under 1 µM and 1 to 10 µM.
On the same counts, the results for `CC(C)c1cnnc(Nc2ccc3ncc(Nc4cncc(OCCN5CCOCC5)c4)cc3n2)c1` [Example 0159, N^2-(5-isopropylpyridazin-3-yl)-N^7-(5-(2-morpholinoethoxyl)pyridin-3-yl)-1,5-naphthyridine-2,7-diamine] are under 1 µM, under 1 µM and under 1 µM.
Regarding `COCc1nn(C)cc1-c1cnc2ccc(Nc3cc(C(C)C)cnn3)nc2c1` [Example 0160], the IC50 was under 1 µM on human PI3Kα protein (setting [3]); under 1 µM in experiment [1] (setting [4]); under 1 µM in experiment [2] (1.25 nmol/L ERK2, ATP 1 mmol/L).
With `COCc1nn(C)cc1-c1cnc2ccc(Nc3cc(C)cnn3)nc2c1` [Example 0161], the IC50 is under 1 µM on human PI3Kα protein (setting [3]); under 1 µM in experiment [1] (setting [4]); under 1 µM in experiment [2] (1.25 nmol/L ERK2, ATP 1 mmol/L).
For the compound `Cn1cc(-c2cnc3ccc(Nc4nnc(C(C)(C)C)s4)nc3c2)cn1` [Example 0162], the IC50 at human PI3Kα protein (setting [3]) is under 1 µM; in experiment [1] (setting [4]) it was under 1 µM; in experiment [2] (1.25 nmol/L ERK2, ATP 1 mmol/L), under 1 µM.
As for `CCc1nnc(Nc2ccc3ncc(-c4cnn(C)c4)cc3n2)s1` [Example 0163], the IC50 at human PI3Kα protein (setting [3]) was under 1 µM; in experiment [1] (setting [4]), under 1 µM; in experiment [2] (1.25 nmol/L ERK2, ATP 1 mmol/L), under 1 µM.
In the case of `CC(C)c1nnc(Nc2ccc3ncc(-c4cnn(C)c4)cc3n2)s1` [Example 0167, 5-Isopropyl-N-(7-(1-methyl-1H-pyrazol-4-yl)-1,5-naphthyridin-2-yl)-1,3,4-thiadiazole-2-amine], the IC50 at human PI3Kα protein (setting [3]) was under 1 µM; in experiment [1] (setting [4]) it was under 1 µM; in experiment [2] (1.25 nmol/L ERK2, ATP 1 mmol/L) it was under 1 µM.
Take `COCc1nnc(Nc2ccc3ncc(-c4cnn(C)c4)cc3n2)s1` [Example 0170, 5-(Methoxymethyl)-N-(7-(1-methyl-1H-pyrazol-4-yl)-1,5-naphthyridin-2-yl)-1,3,4-thiadiazole-2-amine]: the IC50 is 1 to 10 µM on human PI3Kα protein (setting [3]); under 1 µM in experiment [1] (setting [4]); under 1 µM in experiment [2] (1.25 nmol/L ERK2, ATP 1 mmol/L).
As to `Cn1cc(-c2cnc3ccc(Nc4nnc(C5CCCC5)s4)nc3c2)cn1` [Example 0172, 5-cyclopentyl-N-(7-(1-methyl-1H-pyrazol-4-yl)-1,5-naphthyridin-2-yl)-1,3,4-thiadiazole-2-amine], the IC50 on human PI3Kα protein (setting [3]) is under 1 µM; in experiment [1] (setting [4]) it was under 1 µM; in experiment [2] (1.25 nmol/L ERK2, ATP 1 mmol/L), under 1 µM.
For the compound `Cn1cc(-c2cnc3ccc(Nc4nnc(N5CCCC5)s4)nc3c2)cn1` [Example 0173, N-(7-(1-methyl-1H-pyrazol-4-yl)-1,5-naphthyridin-2-yl)-5-(pyrrolidin-1-yl)-1,3,4-thiadiazole-2-amine], the IC50 at human PI3Kα protein (setting [3]) is 1 to 10 µM; in experiment [1] (setting [4]) it was under 1 µM; in experiment [2] (1.25 nmol/L ERK2, ATP 1 mmol/L), under 1 µM.
As for `CNS(=O)(=O)c1nnc(Nc2ccc3ncc(-c4cnn(C)c4)cc3n2)s1` [Example 0189, methyl ((5-((7-(1-methyl-1H-pyrazol-4-yl)-1,5-naphthyridin-2-yl)amino)-1,3,4-thiadiazol-2-yl)sulfonyl)amide sodium salt], the IC50 at human PI3Kα protein (setting [3]) is under 1 µM; in experiment [1] (setting [4]) it was under 1 µM; in experiment [2] (1.25 nmol/L ERK2, ATP 1 mmol/L), under 1 µM.
Regarding `Cc1n[nH]c(C)c1-c1cnc2ccc(Nc3nnc(C4CCCC4)s3)nc2c1` [Example 0215], the IC50 on human PI3Kα protein is 1 to 10 µM; in experiment [1] (ERK2 enzyme assay (1)), under 1 µM; in experiment [2] (ERK2 enzyme assay (2)), under 1 µM.
Take `c1nc2ccc(Nc3nnc(C4CCC4)s3)nc2cc1-c1cnn(CCCN2CCCC2)c1` [Example 0235]: the IC50 (at human PI3Kα protein; in experiment [1] (ERK2 enzyme assay (1)); in experiment [2] (ERK2 enzyme assay (2))) was under 1 µM in each case.
In the case of `c1nc2ccc(Nc3nnc(C4CCCCC4)s3)nc2cc1-c1cnn(CCCN2CCCC2)c1` [Example 0236], the IC50 (at human PI3Kα protein; in experiment [1] (ERK2 enzyme assay (1)); in experiment [2] (ERK2 enzyme assay (2))) was under 1 µM throughout.
On to `CCOC(=O)Cc1nnc(Nc2ccc3ncc(-c4cnn(CCCN5CCCC5)c4)cc3n2)s1` [Example 0242, ethyl (5-((7-(1-(3-(pyrrolidin-1-yl)propyl)-1H-pyrazol-4-yl)-1,5-naphthyridin-2-yl)amino)-1,3,4-thiadiazol-2-yl)acetate], for which the IC50 (on human PI3Kα protein; in experiment [1] (ERK2 enzyme assay (1)); in experiment [2] (ERK2 enzyme assay (2))) was under 1 µM throughout.
`Cn1cc(-c2cnc3ccc(Nc4nnc(C5CCCN5)s4)nc3c2)cn1` (stereo not drawn) [Example 0246, N-(7-(1-methyl-1H-pyrazol-4-yl)-1,5-naphthyridin-2-yl)-5-(pyrrolidin-2-yl)-1,3,4-thiadiazole-2-amine]: the IC50 was 1 to 10 µM on human PI3Kα protein, under 1 µM in experiment [1] (ERK2 enzyme assay (1)) and under 1 µM in experiment [2] (ERK2 enzyme assay (2)).
For `CC(=O)N1CCCC1c1nnc(Nc2ccc3ncc(-c4cnn(C)c4)cc3n2)s1` (stereo not drawn) [Example 0248, 1-(2-(5-((7-(1-methyl-1H-pyrazol-4-yl)-1,5-naphthyridin-2-yl)amino)-1,3,4-thiadiazol-2-yl)pyrrolidin-1-yl)ethanone], the figures for the IC50 (at human PI3Kα protein; in experiment [1] (ERK2 enzyme assay (1)); in experiment [2] (ERK2 enzyme assay (2))) were 1 to 10 µM, under 1 µM and under 1 µM, respectively.
For `Cn1cc(-c2cnc3ccc(Nc4nnc(C5CCNC5)s4)nc3c2)cn1` (stereo not drawn) [Example 0251], the IC50 is 1 to 10 µM on human PI3Kα protein, under 1 µM in experiment [1] (ERK2 enzyme assay (1)) and under 1 µM in experiment [2] (ERK2 enzyme assay (2)).
As to `CN1CCC(c2nnc(Nc3ccc4ncc(-c5cnn(C)c5)cc4n3)s2)C1` (stereo not drawn) [Example 0252, N-(7-(1-methyl-1H-pyrazol-4-yl)-1,5-naphthyridin-2-yl)-5-(1-methylpyrrolidin-3-yl)-1,3,4-thiadiazole-2-amine], the results for the IC50 (on human PI3Kα protein; in experiment [1] (ERK2 enzyme assay (1)); in experiment [2] (ERK2 enzyme assay (2))) were 1 to 10 µM, under 1 µM and under 1 µM, respectively.

The record behind these values is patent US9783536B2, “Nitrogen-containing heterocyclic compound or salt thereof” (FUJIFILM Corporation, priority 2013, dated 2017).
